Measurements reported in patent EP4385980A1, “INDAZOLES AS INHIBITORS OF NAV1.8” (Grünenthal GmbH, priority 2022, dated 2024).

Target: T1, human NaV1.8 (Homo sapiens, UniProt Q9Y5Y9)
T1 construct: expressed in transfected cells; host or cells: HEK
Test: Electrophysiology: voltage-clamp recordings (whole-cell automated patch clamp, Qube384)
Type: cell-based
Settings: HEK-NaV1.8 with b3 recombinant cell line, ambient room temperature, read-out: Potency category (human NaV1.8 IC50)
Procedure: The following NaV1.8 recombinant cell line was used for recordings: HEK-NaV1.8 (NM_006514.1) with b3 (NM_018400.3).
Sodium currents were measured using the patch clamp technique in the whole-cell configuration using the Qube384 (Sophion A/S, Copenhagen, Denmark) automated voltage clamp platform. "Multi hole" plates were used for the cell line expressing NaV1.8 while "single hole" plates were used for the recombinant cell lines expressing the other subtypes. Appropriate filters (for minimum seal resistance and minimum current size) and series resistance compensation (for high quality sodium channel recordings) were applied. Data was collected at ambient room temperature.
The recording […] solution contained (in mM): NaCl 145 mM, KCl 4 mM, CaCl2 2 mM, MgCl2 1 mM, HEPES 10 mM, Glucose 10 mM, pH 7.4 (NaOH). The […] recording solution contained (in mM): CsF 120 mM, CsCl 20 mM, NaCl 10 mM, EGTA 10 mM, HEPES 10 mM, pH 7.2 (CsOH). Currents were recorded at 25 kHz sampling frequency and filtered at 5 kHz. Series resistance compensation was applied at 65%.
Vehicle (VEH) is the control condition where cells are exposed to 0.3 % DMSO without compound. All runs include VEH controls being exposed to the same voltage protocols to assess non-compound related phenomena such as run down and then used to isolate compound dependent effects on currents.
To check for state-dependence inhibition, the following voltage-sequence was applied every 20 seconds: From a resting membrane potential of-120 mV, the first test pulse (P1; 20 ms to -10 mV) was applied to check for channels in the Resting State followed by a brief recovery (20 ms to -120 mV), then holding the membrane voltage to V1/2 (4 seconds at voltage to obtain half the channel at Rest and half Inactivated) with a subsequent second test pulse (P2; 20 ms to -10 mV) to check for channels in the Inactivated State, followed by another brief recovery (20 ms to -120 mV) and a final third test pulse (P3; 20 ms to -10 mV) to check for recovered channels.
To check for frequency-dependent inhibition, a 10 Hz protocol and a 20 Hz protocol were applied; namely,
From a resting membrane potential of -120 mV, 40-pulses (10 ms to -10 mV) was applied at 10 Hz (at 100 ms between pulses) and then at 20 Hz (at 50 ms between pulses).
Each parameter was recorded (P1, P2, P3, P40 from 10Hz and P40 from 20Hz) during a control period (lasting ~ 5 minutes) when establishing the baseline and during compound period (lasting ~ 12 minutes) when test compound (or vehicle) was applied. For each parameter, the value at the end of the compound period was normalized to the vehicle baseline; as follows Normalized Inhibition (NormCPD) = (CPD Valueend CPD period)/(VEH Valueend Control Period) [formula]
To adjust for any variance in the Na^+ current signal during the compound period (owing to cumulative inactivation independent of compound or shifts in biophysics over time), a dedicated segment of the recording wells in each 384 plate were dedicated to having only vehicle exposure. These vehicle-only recordings were used to correct for any apparent "run-up" or "run-down" in the experiment. Normalized Inhibition (NormVEH) = (VEH Valueend CPD period)/(VEH Valueend Control Period) [formula]
The adjusted inhibition was calculated as follows: % Inhibitioncorrected = 100 × (NormCPD −NormVEH)/(100−NormVEH) [formula]
Percent inhibition was determined and IC50 values were calculated using a 4 parameter logistic model within XLFit Software (IDBS, Boston MA): % Inhibitioncorrected = A + ((B−A))/((1 + (((x)/(C)))^D) [formula] where A and B are the maximal and minimum inhibition respectively, C is the IC50 concentration and D is the (Hill) slope.

T1 sequence (Q9Y5Y9 whole entry): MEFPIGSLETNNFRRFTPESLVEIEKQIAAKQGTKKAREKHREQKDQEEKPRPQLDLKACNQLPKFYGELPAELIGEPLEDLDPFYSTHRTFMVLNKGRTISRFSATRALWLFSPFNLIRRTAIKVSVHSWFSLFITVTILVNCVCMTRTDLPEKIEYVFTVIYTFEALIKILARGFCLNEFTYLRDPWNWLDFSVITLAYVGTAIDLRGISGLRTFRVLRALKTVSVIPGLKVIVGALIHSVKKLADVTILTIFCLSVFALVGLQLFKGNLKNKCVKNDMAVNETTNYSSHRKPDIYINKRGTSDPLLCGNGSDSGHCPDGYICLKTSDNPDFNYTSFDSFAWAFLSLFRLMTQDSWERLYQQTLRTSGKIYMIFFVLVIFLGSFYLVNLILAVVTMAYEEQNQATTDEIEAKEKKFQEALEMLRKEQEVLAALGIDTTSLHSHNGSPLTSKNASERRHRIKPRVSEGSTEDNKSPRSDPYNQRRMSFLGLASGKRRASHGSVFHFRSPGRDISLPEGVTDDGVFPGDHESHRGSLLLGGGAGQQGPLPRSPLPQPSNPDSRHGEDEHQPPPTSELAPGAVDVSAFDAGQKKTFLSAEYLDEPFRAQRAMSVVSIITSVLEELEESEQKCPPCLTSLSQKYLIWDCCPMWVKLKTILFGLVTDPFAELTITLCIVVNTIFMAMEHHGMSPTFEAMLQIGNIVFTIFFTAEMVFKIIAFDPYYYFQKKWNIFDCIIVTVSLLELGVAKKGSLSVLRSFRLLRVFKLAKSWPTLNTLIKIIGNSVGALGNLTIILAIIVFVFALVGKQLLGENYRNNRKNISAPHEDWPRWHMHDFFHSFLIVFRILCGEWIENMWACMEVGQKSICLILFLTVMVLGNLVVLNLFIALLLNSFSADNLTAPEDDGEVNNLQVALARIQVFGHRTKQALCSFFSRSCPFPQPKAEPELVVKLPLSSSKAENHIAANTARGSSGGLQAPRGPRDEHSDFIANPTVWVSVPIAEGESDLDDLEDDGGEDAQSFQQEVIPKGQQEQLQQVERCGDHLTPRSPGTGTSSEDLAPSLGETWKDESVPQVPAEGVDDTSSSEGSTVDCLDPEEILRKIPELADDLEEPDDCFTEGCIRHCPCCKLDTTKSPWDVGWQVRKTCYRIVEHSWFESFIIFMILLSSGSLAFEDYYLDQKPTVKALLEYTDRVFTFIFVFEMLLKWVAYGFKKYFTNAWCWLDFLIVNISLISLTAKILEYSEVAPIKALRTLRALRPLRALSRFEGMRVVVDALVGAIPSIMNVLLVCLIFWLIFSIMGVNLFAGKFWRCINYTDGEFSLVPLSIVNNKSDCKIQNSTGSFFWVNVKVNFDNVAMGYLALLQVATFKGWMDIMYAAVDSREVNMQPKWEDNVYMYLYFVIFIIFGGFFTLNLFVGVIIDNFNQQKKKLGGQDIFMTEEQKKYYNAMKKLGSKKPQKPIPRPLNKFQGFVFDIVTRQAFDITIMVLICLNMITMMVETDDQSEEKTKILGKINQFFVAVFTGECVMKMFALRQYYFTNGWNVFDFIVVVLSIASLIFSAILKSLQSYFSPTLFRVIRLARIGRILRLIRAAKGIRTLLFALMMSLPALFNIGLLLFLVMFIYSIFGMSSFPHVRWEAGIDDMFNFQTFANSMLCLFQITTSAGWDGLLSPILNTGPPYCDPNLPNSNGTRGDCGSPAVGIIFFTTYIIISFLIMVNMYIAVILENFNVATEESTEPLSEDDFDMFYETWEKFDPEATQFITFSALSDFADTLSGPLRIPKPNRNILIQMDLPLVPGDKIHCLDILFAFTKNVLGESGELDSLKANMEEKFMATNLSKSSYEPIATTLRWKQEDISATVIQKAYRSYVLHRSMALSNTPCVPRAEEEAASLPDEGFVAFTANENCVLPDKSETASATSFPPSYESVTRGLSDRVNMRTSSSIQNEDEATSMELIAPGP
T1 sequence (Q9NY72 23-215 partner): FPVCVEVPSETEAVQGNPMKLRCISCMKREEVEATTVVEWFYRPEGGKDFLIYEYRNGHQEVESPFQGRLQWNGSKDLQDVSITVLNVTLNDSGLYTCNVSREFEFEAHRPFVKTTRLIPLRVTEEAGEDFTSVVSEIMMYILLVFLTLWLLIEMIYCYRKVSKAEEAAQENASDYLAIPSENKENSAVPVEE

Question: For `Cc1cccc2c(C(=O)Nc3cccc(S(C)(=O)=O)c3)n(CC3CCCCC3)nc12` [SC-45, 2-(cyclohexylmethyl)-7-methyl-N-(3-methylsulfonylphenyl)indazole-3-carboxamide], which IC50 is on record?
Answer: The IC50 was at most 100 nM.

Question: Which IC50 does the source give for `Cc1ccc2nn(CC3CCCCC3)c(C(=O)Nc3cccc(S(C)(=O)=O)c3)c2c1` [SC-46, 2-(cyclohexylmethyl)-5-methyl-N-(3-methylsulfonylphenyl)indazole-3-carboxamide] here?
Answer: The IC50 was 100 to 1000 nM.

Question: `CS(=O)(=O)c1cccc(NC(=O)c2c3c(F)cccc3nn2CC2CCCCC2)c1` [SC-47, 2-(cyclohexylmethyl)-4-fluoro-N-(3-methylsulfonylphenyl)indazole-3-carboxamide] was tested. Which IC50 did it give?
Answer: Its IC50 is at most 100 nM.

Question: With `Cc1ccc2nn(CC3CCCCC3)c(C(=O)Nc3cc[nH]c(=O)c3)c2c1` [SC-48, 2-(cyclohexylmethyl)-5-methyl-N-(2-oxo-1,2-dihydropyridin-4-yl)-2H-indazole-3-carboxamide] as the compound, how does the IC50 read?
Answer: Its IC50 is 1000 to 10000 nM.

Question: With `O=C(Nc1ccnc(O)c1)c1c2c(F)cccc2nn1CC1CCCCC1` [SC-49, 2-(cyclohexylmethyl)-4-fluoro-N-(2-hydroxypyridin-4-yl)indazole-3-carboxamide] as the compound, how does the IC50 read?
Answer: The IC50 was 100 to 1000 nM.

Question: `O=C(Nc1ccnc(O)c1)c1c2ccccc2nn1CC1CCOC1` (centres unmarked) [SC-50, N-(2-hydroxypyridin-4-yl)-2-(oxolan-3-ylmethyl)indazole-3-carboxamide] was tested. Which IC50 did it give?
Answer: The IC50 was 1000 to 10000 nM.

Question: Which IC50 does the source give for `O=C(Nc1ccnc(O)c1)c1c2ccccc2nn1CC1CCCCO1` (centres unmarked) [SC-53, N-(2-hydroxypyridin-4-yl)-2-(oxan-2-ylmethyl)indazole-3-carboxamide] here?
Answer: Its IC50 is 1000 to 10000 nM.

Question: `CS(=O)(=O)c1cccc(NC(=O)c2c3ccccc3nn2CC2CCOC2)c1` (centres unmarked) [SC-56, N-(3-methylsulfonylphenyl)-2-(oxolan-3-ylmethyl)indazole-3-carboxamide] was tested. Which IC50 did it give?
Answer: The IC50 was 1000 to 10000 nM.

Question: `CS(=O)(=O)c1cccc(NC(=O)c2c3ccccc3nn2CC2CCCCO2)c1` (centres unmarked) [SC-58, N-(3-methylsulfonylphenyl)-2-(oxan-2-ylmethyl)indazole-3-carboxamide] was tested. Which IC50 did it give?
Answer: Its IC50 is 100 to 1000 nM.

Question: How did the IC50 turn out when `CS(=O)(=O)c1cccc(NC(=O)c2c3ccc(F)cc3nn2CC2CCOCC2)c1` [SC-60, 6-fluoro-N-(3-methylsulfonylphenyl)-2-(oxan-4-ylmethyl)indazole-3-carboxamide] was run?
Answer: The IC50 was 100 to 1000 nM.

Question: For `CS(=O)(=O)c1cccc(NC(=O)c2c3ccc(F)cc3nn2CCC2CCCC2)c1` [SC-61, 2-(2-cyclopentylethyl)-6-fluoro-N-(3-methylsulfonylphenyl)indazole-3-carboxamide], which IC50 is on record?
Answer: Its IC50 is 100 to 1000 nM.

Question: Which IC50 does the source give for `CS(=O)(=O)c1cccc(NC(=O)c2c3ccc(F)cc3nn2CC2CC(F)(F)C2)c1` [SC-62, 2-[(3,3-difluorocyclobutyl)methyl]-6-fluoro-N-(3-methylsulfonylphenyl)indazole-3-carboxamide] here?
Answer: The IC50 was 100 to 1000 nM.

Question: How did the IC50 turn out when `CS(=O)(=O)c1cccc(NC(=O)c2c3ccccc3nn2CC2CCCC2)c1` [SC-67, 2-(cyclopentylmethyl)-7V-(3-methylsulfonylphenyl)indazole-3-carboxamide] was run?
Answer: Its IC50 is 100 to 1000 nM.

Question: `CC1(C)CC(Cn2nc3cc(F)ccc3c2C(=O)Nc2cccc(S(C)(=O)=O)c2)C1` [SC-68, 2-[(3,3-dimethylcyclobutyl)methyl]-6-fluoro-N-(3-methylsulfonylphenyl)indazole-3-carboxamide] was tested. Which IC50 did it give?
Answer: Its IC50 is at most 100 nM.

Question: `CS(=O)(=O)c1cccc(NC(=O)c2c3ccc(F)cc3nn2CC2CCC3(CC2)CC3)c1` [SC-70, 6-fluoro-N-(3-methylsulfonylphenyl)-2-(spiro[2.5]octan-6-ylmethyl)indazole-3-carboxamide] was tested. Which IC50 did it give?
Answer: Its IC50 is 1000 to 10000 nM.

Question: `O=C(Nc1ccnc(O)c1)c1c2ccc(F)cc2nn1CC1CCCCO1` (centres unmarked) [SC-71, 6-fluoro-N-(2-hydroxypyridin-4-yl)-2-[[oxan-2-yl]methyl]indazole-3-carboxamide] was tested. Which IC50 did it give?
Answer: The IC50 was 1000 to 10000 nM.

Question: With `O=C(Nc1ccnc(O)c1)c1c2ccccc2nn1CC1CCCC1` [SC-73, 2-(cyclopentylmethyl)-N-(2-hydroxypyridin-4-yl)indazole-3-carboxamide] as the compound, how does the IC50 read?
Answer: Its IC50 is 100 to 1000 nM.

Question: With `NC(=O)c1cccc(NC(=O)c2c3ccc(F)cc3nn2CC2CCC(F)(F)CC2)c1` [SC-76, N-(3-Carbamoylphenyl)-2-[(4,4-difluorocyclohexyl)methyl]-6-fluoro-2H-indazole-3-carboxamide] as the compound, how does the IC50 read?
Answer: Its IC50 is 100 to 1000 nM.

Question: Which IC50 does the source give for `CS(=O)(=O)c1cc(NC(=O)c2c3ccccc3nn2CC2CCCCC2)ccc1F` [SC-77, 2-(cyclohexylmethyl)-N-(4-fluoro-3-methylsulfonylphenyl)indazole-3-carboxamide] here?
Answer: The IC50 was at most 100 nM.

Question: `Cc1cccc2c(C(=O)Nc3cccc(S(N)(=O)=O)c3)n(CC3CCC(F)(F)C3)nc12` (centres unmarked) [SC-80, 2-((3,3-difluorocyclopentyl)methyl)-7-methyl-N-(3-sulfamoylphenyl)-2H-indazole-3-carboxamide] was tested. Which IC50 did it give?
Answer: The IC50 was at most 100 nM.

Question: With `NS(=O)(=O)c1cccc(NC(=O)c2c3cccc(F)c3nn2CC2CCCC(F)(F)C2)c1` (centres unmarked) [SC-81, 2-((3,3-difluorocyclohexyl)methyl)-7-fluoro-N-(3-sulfamoylphenyl)-2H-indazole-3-carboxamide] as the compound, how does the IC50 read?
Answer: Its IC50 is at most 100 nM.

Question: Which IC50 does the source give for `Cc1cccc2nn(CC3CCCCC3)c(C(=O)Nc3cccc(S(C)(=O)=O)c3)c12` [SC-83, 2-(cyclohexylmethyl)-4-methyl-N-(3-(methylsulfonyl)phenyl)-2H-indazole-3-carboxamide] here?
Answer: The IC50 was at most 100 nM.

Question: With `NS(=O)(=O)c1cccc(NC(=O)c2c3cccc(C4CC4)c3nn2CC2CCOCC2)c1` [SC-85, 7-cyclopropyl-N-(3-sulfamoylphenyl)-2-((tetrahydro-2H-pyran-4-yl)methyl)-2H-indazole-3-carboxamide] as the compound, how does the IC50 read?
Answer: The IC50 was at most 100 nM.

Question: How did the IC50 turn out when `NC(=O)c1cc(NC(=O)c2c3ccc(F)cc3nn2CC2CCCCC2)ccn1` [SC-86, N-(2-carbamoylpyridin-4-yl)-2-(cyclohexylmethyl)-6-fluoro-2H-indazole-3-carboxamide] was run?
Answer: Its IC50 is at most 100 nM.

Question: Which IC50 does the source give for `NS(=O)(=O)c1cc(NC(=O)c2c3ccc(F)cc3nn2CC2CCCCC2)ccn1` [SC-87, 2-(cyclohexylmethyl)-6-fluoro-N-(2-sulfamoylpyridin-4-yl)-2H-indazole-3-carboxamide] here?
Answer: Its IC50 is at most 100 nM.

Question: Which IC50 does the source give for `NS(=O)(=O)c1cc(NC(=O)c2c3cccc(C(F)F)c3nn2C[C@H]2CCCCO2)ccn1` [SC-89b] here?
Answer: The IC50 was at most 100 nM.
